Test results taken from patent US11278525B1, “Further molecules, compositions and methods for modulation of SIRT6” (SirTLab Corporation, priority 2017, dated 2022).

Target: SIRT6 (Homo sapiens, UniProt Q8N6T7)
Assay: SIRT6 enzymatic activity assay with fluorophore (AMC)-labeled Lysin-myristoylated histone H3 peptide (de-myristoylation, trypsin release)
Assay type: biochemical
Design: six-histidine tag; made in house; host or cells: Escherichia coli BL21
Conditions: for % activity Max. conc. 100 uM: compound 100 uM; for % activity Max. conc. 100 uM / % activity 20 uM: percentage of signal increase relative to control wells, Tables 1-2; for % Activity: amount tested 20 uM, Example 5, Table 9; for % activity 20 uM: compound 20 uM
Procedure: Human recombinant SIRT6 (sequence identifier: CAG33481.1; GI:4814651) was expressed in large scale in Escherichia coli strain BL21 as a six-histidine-tagged protein, after transformation of the expression plasmid pET28-SIRT6. The SIRT6 enzyme was purified from the bacteria culture broth in a two-step strategy. The first purification step was carried out by cation exchange chromatography on a HiTrap CM-Sepharose column (GE Healthcare) using an FPLC system. The second purification step was performed by immobilized metal ion affinity chromatography (IMAC) using a cobalt affinity column (Clontech).
The enzymatic activity assay is carried out in 96 or 384-well microplates using the purified recombinant SIRT6 and a fluorophore-labeled peptide substrate: 7-amino-4-methylcoumarin (AMC) that is quenched through conjugation to the C-terminal end of a Lysin-myristoylated histone H3 peptide. The activity assay procedure requires two steps, both performed in the same microplate. In the first step, the substrate is incubated with the purified SIRT6 protein along with the co-substrate nicotinamide adenine dinucleotide (NAD+). Upon de-myristoylation, the liberated ε-amino group of the lysine becomes a trypsin substrate. Treatment with trypsin in the second step releases the fluorophore resulting in an increase in fluorescence. Fluorescence intensity is measured using a fluorescent plate reader (excitation and emission at 370 nm and 450 nm, respectively). The fluorescence signal is directly proportional to SIRT6 enzymatic activity.
In the primary screening, compounds from a library (ChemDiv Inc.) were tested at a single concentration of 20 micromolar for their potential to modulate SIRT6 enzymatic activity. The assay was carried out in 384-well black well plates and all liquid handling was done using a robotic liquid handler. Purified recombinant SIRT6 (1 micromolar) was pre-incubated with each compound (or DMSO in control wells) for 15 minutes at room temperature. The first stage of the assay was initiated by adding a ‘substrate solution’ containing the myristoylated histone H3 peptide and NAD+(for final concentrations of 25 micromolar and 20 micromolar, respectively). After one hour incubation at 37° C., a Trypsin solution (6 mg/mL) was added for 30 minutes at room temperature. Fluorescence intensity was measured using a fluorescent plate reader (Tecan) with excitation at 370 nm and emission at 450 nm. The effect of each tested compound was evaluated by the change in the fluorescence intensity compared to control wells. […] To validate the primary screening results, each of the primary “hits” was re-tested, first at concentration of 20 micromolar in duplicates and later at a serial dilution ranging from 100 to 0.2 micromolar in triplicates.
Results of Assay—The results of the assay are given below in Tables 1-3.
Additional molecules were tested according to the methods and materials of Example 1. The amount tested was 20 uM for each molecule.

SIRT6, sequence (Q8N6T7 whole entry): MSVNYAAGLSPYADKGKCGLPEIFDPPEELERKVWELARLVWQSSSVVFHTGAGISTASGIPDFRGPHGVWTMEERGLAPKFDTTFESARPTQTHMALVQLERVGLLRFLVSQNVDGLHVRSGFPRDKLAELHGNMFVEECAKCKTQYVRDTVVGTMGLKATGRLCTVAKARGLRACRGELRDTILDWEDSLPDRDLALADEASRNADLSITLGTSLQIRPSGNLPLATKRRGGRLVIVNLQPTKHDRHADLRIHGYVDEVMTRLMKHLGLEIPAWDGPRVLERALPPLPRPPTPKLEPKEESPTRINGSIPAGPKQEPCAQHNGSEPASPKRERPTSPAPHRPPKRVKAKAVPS

% activity Max. conc. 100 uM [%]	% Activity [%]	% activity 20 uM [%]	Structure (SMILES)
51	–	–	O=C(Nc1ccc2nncn2c1)c1cccc(Cl)c1 [M723-0069]
87	–	–	CC(C)(C)c1ccc(C(=O)Nc2ccc3nnc(C4CCC4)n3c2)cc1 [M723-1403]
142	–	–	O=C(Nc1ccc2nnc(C3CCC3)n2c1)C1CC1 [M723-1459]
22	–	36	Cc1nc(Cc2ccc(F)cc2)sc1C(=O)Nc1ccc(F)cc1F [M830-6517]
11	–	–	Cc1ccc(Nc2nc(C)c(C(=O)Nc3cccc(C(C)C)c3)s2)cc1 [M830-6572]
–	84	–	Cc1ccccc1C1N=C2C=NC=CN2C1NCCC(=O)NCc1cccs1 (centres unmarked) [P349-2111]
37	–	–	COc1cc(NC(=O)c2csc(-c3cn(C)c4ncccc34)n2)cc(OC)c1 [P613-0273]
53	–	–	CCCC1(CO)CCCN1C(=O)c1ccc2cc[nH]c2c1 (centres unmarked) [P933-1294]
45	–	–	N#Cc1cccc(-c2cn3c(n2)N(C(=O)c2ccncc2)CCC3)c1 [P950-0537]
47	–	–	Cc1noc(-c2cccc(OC3CN(C(=O)c4cccc5[nH]ccc45)C3)c2)n1 [S051-0094]
–	30	–	CCNC(=O)N1CCc2c(sc3ncnc(NCC)c23)C1 [S324-0342]
–	60	–	CNC(=O)N1CCc2c(sc3ncnc(NCCCOC)c23)C1 [S324-0365]
–	67	–	CN1CCN(C(=O)C2CCN(c3nc4ccc(-c5ccccc5)nc4s3)CC2)CC1 [T387-0661]
–	51	–	CN(C)CCCNC(=O)C1CCN(c2nc3ccc(-c4ccccc4)nc3s2)CC1 [T387-0668]
–	69	–	CCN1CCN(C(=O)C2CCN(c3nc4ccc(-c5ccccc5)nc4s3)CC2)CC1 [T387-0670]
–	22	–	CN1CCC(NC(=O)C2CCN(c3nc4ccc(-c5ccccc5)nc4s3)CC2)CC1 [T387-0726]
–	65	–	COCCCNC(=O)C1CCN(c2nc3ccc(-c4cncnc4)nc3s2)CC1 [T387-0917]
–	49	–	CN(C)CCNC(=O)C1CCN(c2nc3ccc(-c4cncnc4)nc3s2)CC1 [T387-0941]
–	40	–	O=C(C1CCN(c2nc3ccc(-c4cncnc4)nc3s2)CC1)N1CCCC1 [T387-0947]
–	80	–	CN(C)C(=O)C1CCN(c2nc3ccc(-c4cncnc4)nc3s2)CC1 [T387-0950]
–	31	–	CN(C)CCNC(=O)C1CCN(c2nc3ccc(-c4cccnc4)nc3s2)CC1 [T387-1019]
–	47	–	CC1CCN(C(=O)C2CCN(c3nc4ccc(-c5ccncc5)nc4s3)CC2)CC1 [T387-1113]
–	85	–	CCN(CC)C(=O)C1CCN(C2=Nc3ccc(-c4ccncc4)nc3C2)CC1 [T387-1131]
175	–	–	C=C(C)C1Cc2cc(C(F)(F)F)ccc2N2CCCCC12 (centres unmarked) [V004-5575]
–	529	–	CCOC(=O)CCc1c(C)c2ccc(OC(=O)C3CCCCC3)c(C)c2oc1=O [Y04-4165]
–	71	–	Cc1c(OC(=O)C2CCCCC2)ccc2c3c(c(=O)oc12)CCCC3 [Y040-0748]
–	33	–	COc1cccc(C(=O)Oc2ccc3c4c(c(=O)oc3c2C)CCCC4)c1 [Y040-0750]
–	237	–	Cc1c(C)c2ccc(OC(=O)C3CCCCC3)c(C)c2oc1=O [Y040-1862]
–	30	–	Cc1c(Cc2ccccc2)c(=O)oc2c(C)c(OC(=O)C3CC3)ccc12 [Y040-1980]
–	140	–	COc1ccc(C(=O)Oc2ccc3c(C)c(Cc4ccccc4)c(=O)oc3c2)cc1 [Y040-2026]

Second part, the compound before the results:

Structure (SMILES)	% activity Max. conc. 100 uM [%]	% Activity [%]	% activity 20 uM [%]
C=C1Oc2ccc(C)cc2-c2oc(NCCOC)c(-c3ccc(OCC)cc3)c21 [F025-0098]	226	–	–
COCCNc1oc2c(c1-c1ccc(C)cc1)c(=O)oc1c(C)cccc12 [F025-0102]	111	–	–
CCC(=O)Nc1nc2c(OC)cc(NC(=O)c3ccccc3OC)cc2s1 [F259-0462]	–	117	–
Cc1ccc(NC(=O)c2nnc(-c3ccc(NC(=O)c4cccs4)cc3)s2)cc1 [F498-0132]	16	–	–
O=C(CSc1nc2ncccc2n2cccc12)NCc1ccco1 [G117-0491]	–	88	–
COc1ccc(CN2CCN(C(=O)c3ccc(N4CCc5ccccc54)s3)CC2)c(OC)c1OC [G122-1838]	–	45	–
C=C(CN1C(=C)C(c2nc(-c3ccccc3)no2)=C(C)C=C1C)NCCc1ccc(CC)c(CC)c1 [G744-0071]	73	–	–
C=C(Cn1c(C)cc(C)c(C2=NC(c3ccccc3)=NC2)c1=O)NC1CCCCC1 [G744-0080]	221	–	53
C=C(Nc1cc(C)cc(C)c1)Nc1nnc(SCC2=CC(=C)N3C=C(C)C=CC3=N2)s1 [G755-0539]	87	–	34
Cc1cc(C)c2sc(N(Cc3cccnc3)C(=O)CCS(=O)(=O)c3ccccc3)nc2c1 [G856-7064]	–	61	–
C=C(Oc1ccc2cnccc2c1)c1sc2ccccc2c1N [G891-0058]	324	–	154
C=C1Cc2c(cccc2CC)C=C1c1csc(NC(=O)CCC(=O)NCCCN2CCC(C)CC2)n1 [K232-1782]	35	–	42
CCOC(=O)C1CCCN(S(=O)(=O)c2ccc(-c3ccc(N4CCOCC4)nn3)s2)C1 (centres unmarked) [K906-5001]	52	–	52
CCOc1ccc(NC(=O)c2sc3nc(C)nc(N(C)c4ccc(C(C)C)cc4)c3c2C)cc1 [K937-0320]	54	–	32
CCC(=O)Nc1ccc(-c2cc(C(=O)NCCCN3CCCCCC3)c3ccccc3n2)cc1 [L036-0162]	92	–	62
CCC(=O)Nc1ccc(-c2cc(C(=O)NCCCN3CCCCC3C)c3ccccc3n2)cc1 (centres unmarked) [L036-0163]	110	–	–
CCC(=O)Nc1ccc(-c2cc(C(=O)NCCCN3CCCC(C)C3)c3ccccc3n2)cc1 (centres unmarked) [L036-0174]	87	–	61
CC(=O)Nc1ccc(-c2cc(C(=O)NCCN3CCN(C)CC3)c3cc(C)ccc3n2)cc1 [L036-2289]	119	–	96
CCCNc1nc2ccccc2nc1S(=O)(=O)Cc1ccc(Cl)cc1 [L103-0652]	42	–	34
CCOCCCNc1nc2ccccc2nc1S(=O)(=O)Cc1ccc(Cl)cc1 [L103-0696]	159	–	91
CC(C)Cn1c(=O)c(-c2ccc(C(=O)N3CCN(c4ccccc4)CC3)cc2)nc2ccccc21 [M049-1557]	56	–	51
CCCNC(=O)c1ccc(-c2ccc(N3CCCCC3)nc2)cc1 [M715-0111]	50	–	63
CN(C)C(=O)c1ccc(-c2ccc(N3CCCCC3)nc2)cc1 [M715-0112]	54	–	40
O=C(c1ccc(-c2ccc(N3CCCCC3)nc2)cc1)N1CCCC1 [M715-0156]	75	–	–
Cc1nc(-c2cccc(C(F)(F)F)c2)c(N)c(N(C)C2CCN(C)CC2)n1 [V030-4109]	255	–	–
Cc1nc(-c2cccc(F)c2)c(N)c(N(C)C2CCN(C)CC2)n1 [V030-4128]	210	–	–
